Columns and labels:
Format in all cases: cell-based
SK-MEL-2 = experiment: NCI screen, growth of human tumor cells: Melanoma SK-MEL-2; conditions: SK-MEL-2 (Melanoma), 10^−4 molar
Method: (§1) In the NCI screening process, each compound was tested and described by a minimum of 60 data points. The test data include, but are not limited to the type of cancer, the molar concentration used in the screen, and the percent growth of the cancer. In some cases, NMR and elemental analysis were used for structural assignment.

SF-295 = experiment: NCI screen, growth of human tumor cells: CNS Cancer SF-295
Method: as §1

human cancer cells = experiment: NCI screen summary over the cancers tested (negative growth of human cancer cells); conditions: cancers with negative growth / cancers tested
Method: as §1
The derivatives in the tables are grouped using the same category as in the tables 1-6.

HOP-62 = experiment: NCI screen, growth of human tumor cells: Non-Small Cell Lung HOP-62; conditions: HOP-62 (Non-Small Cell Lung), 10^−4 molar
Method: as §1

SR = experiment: NCI screen, growth of human tumor cells: Leukemia SR; conditions: for percent of growth of human tumor cells: SR (Leukemia); for % Growth: SR
Method: as §1

HOP-18 = experiment: NCI screen, growth of human tumor cells: Non-Small Cell Lung HOP-18
Method: as §1

EKVX = experiment: NCI screen, growth of human tumor cells: Non-Small Cell Lung EKVX; conditions: EKVX
Method: as §1

NCI-H226 = experiment: NCI screen, growth of human tumor cells: Non-Small Cell Lung NCI-H226
Method: as §1

KM12 = experiment: NCI screen, growth of human tumor cells: Colon Cancer KM12
Method: as §1

HOP-92 = experiment: NCI screen, growth of human tumor cells: Non-Small Cell Lung HOP-92
Method: as §1

RXF-393 = experiment: NCI screen, growth of human tumor cells: Renal Cancer RXF-393
Method: as §1

NCI-H522 = experiment: NCI screen, growth of human tumor cells: Non-Small Cell Lung NCI-H522
Method: as §1

CCRF-CEM = experiment: NCI screen, growth of human tumor cells: Leukemia CCRF-CEM; conditions: CCRF-CEM (Leukemia), 10^−4 molar
Method: as §1

SF-539 = experiment: NCI screen, growth of human tumor cells: CNS Cancer SF-539
Method: as §1

## CN(C)C(=N)N=C(N)N.CS(C)=O.[Cl][Pt][Cl] [NSC 671543]
SK-MEL-2
  percent of growth of human tumor cells: 30%

## O=C(c1ccc2ccccc2c1)C1(I)S(=O)(=O)OCCOS1(=O)=O [NSC 679046]
SF-295; SF-295, 10^−4 molar
  % Growth: −52%
SF-295; SF-295, 10^−5 molar
  % Growth: −58%
SF-295; SF-295, 10^−6 molar
  % Growth: −65%
SF-295; SF-295, 10^−7 molar
  % Growth: −56%
SF-295; SF-295, 10^−8 molar
  % Growth: 51%
Human cancer cells; 10^−4 M conc.
  Percentage of cancers showing negative growth cancers tested: 100%
Human cancer cells; 10^−5 M conc.
  Percentage of cancers showing negative growth cancers tested: 100%
Human cancer cells; 10^−6 M conc.
  Percentage of cancers showing negative growth cancers tested: 100%
Human cancer cells; 10^−7 M conc.
  Percentage of cancers showing negative growth cancers tested: 100%
Human cancer cells; 10^−8 M conc.
  Percentage of cancers showing negative growth cancers tested: 0%

## COC(=O)/C=C(\C(=O)OC)C1C(=O)Oc2c(C)c(=O)c3ccccc3n21 (stereo not drawn) [NSC 670993]
HOP-62
  percent of growth of human tumor cells: −53%

## CCCCCCCCOCC1S(=O)(=O)OCCOS1(=O)=O [NSC 671535]
SR; 10^−4 molar
  percent of growth of human tumor cells: 5%
Human cancer cells; 10^−4 M conc.
  Percentage of cancers showing negative growth cancers tested: 10^−4 M conc. = 0/1 = 0%

## Cc1ccc(S(=O)(=O)NC(=O)C2S(=O)(=O)OCCOS2(=O)=O)cc1 [NSC 648303, ethylene(4-methylbenzenesulfonamidocarbonyl)methanedisulfonate]
HOP-18; HOP-18, 10^−4 molar
  % Growth: 69%
HOP-18; HOP-18, 10^−5 molar
  % Growth: 43%
HOP-18; HOP-18, 10^−6 molar
  % Growth: 39%
HOP-18; HOP-18, 10^−7 molar
  % Growth: 33%
HOP-18; HOP-18, 10^−8 molar
  % Growth: 31%
Human cancer cells; 10^−4 M conc.
  Percentage of cancers showing negative growth cancers tested: 10^−4 M conc. = 0/3 = 0%
EKVX; 10^−4 molar
  % Growth: 59%
EKVX; 10^−5 molar
  % Growth: 66%
EKVX; 10^−6 molar
  % Growth: 69%
EKVX; 10^−7 molar
  % Growth: 67%
EKVX; 10^−8 molar
  % Growth: 57%
NCI-H226; NCI-H226, 10^−4 molar
  % Growth: 16%
NCI-H226; NCI-H226, 10^−5 molar
  % Growth: 37%
NCI-H226; NCI-H226, 10^−6 molar
  % Growth: 51%
NCI-H226; NCI-H226, 10^−7 molar
  % Growth: 55%
NCI-H226; NCI-H226, 10^−8 molar
  % Growth: 53%

## O=C1c2ccccc2C(=O)N1CC1S(=O)(=O)OCCOS1(=O)=O [NSC 671536]
KM12; KM12, 10^−4 molar
  % Growth: 50%
KM12; KM12, 10^−5 molar
  % Growth: 42%
KM12; KM12, 10^−6 molar
  % Growth: 39%
KM12; KM12, 10^−7 molar
  % Growth: 59%
KM12; KM12, 10^−8 molar
  % Growth: 40%
SR; 10^−4 molar
  percent of growth of human tumor cells: 15%
Human cancer cells; 10^−4 M conc.
  Percentage of cancers showing negative growth cancers tested: 10^−4 M conc. = 0/2 = 0%

## O=C(O)c1ccccc1C(=O)NCC1S(=O)(=O)OCCOS1(=O)=O [NSC 671537, ethylene (2-carboxy-benzoyl)-N-2-ethane-1,1-disulfonate]
KM12; KM12, 10^−4 molar
  % Growth: 62%
KM12; KM12, 10^−5 molar
  % Growth: 54%
KM12; KM12, 10^−6 molar
  % Growth: 45%
KM12; KM12, 10^−7 molar
  % Growth: 61%
KM12; KM12, 10^−8 molar
  % Growth: 41%
Human cancer cells; 10^−4 M conc.
  Percentage of cancers showing negative growth cancers tested: 10^−4 M conc. = 0/1 = 0%

## COC=C1S(=O)(=O)OCCOS1(=O)=O [NSC 701691, ethylene 2-methoxy-1,1-ethylenedisulfonate]
HOP-92; HOP-92, 10^−4 molar
  % Growth: 44%
HOP-92; HOP-92, 10^−5 molar
  % Growth: 56%
HOP-92; HOP-92, 10^−6 molar
  % Growth: 92%
HOP-92; HOP-92, 10^−7 molar
  % Growth: 71%
HOP-92; HOP-92, 10^−8 molar
  % Growth: 58%
HOP-18; HOP-18, 10^−4 molar
  % Growth: 44%
HOP-18; HOP-18, 10^−5 molar
  % Growth: 56%
HOP-18; HOP-18, 10^−6 molar
  % Growth: 92%
HOP-18; HOP-18, 10^−7 molar
  % Growth: 71%
HOP-18; HOP-18, 10^−8 molar
  % Growth: 58%
RXF-393; RXF-393, 10^−4 molar
  % Growth: 23%
RXF-393; RXF-393, 10^−5 molar
  % Growth: 55%
RXF-393; RXF-393, 10^−6 molar
  % Growth: 60%
RXF-393; RXF-393, 10^−7 molar
  % Growth: 68%
RXF-393; RXF-393, 10^−8 molar
  % Growth: 63%
NCI-H522; NCI-H522, 10^−4 molar
  % Growth: 66%
NCI-H522; NCI-H522, 10^−5 molar
  % Growth: 44%
NCI-H522; NCI-H522, 10^−6 molar
  % Growth: 67%
NCI-H522; NCI-H522, 10^−7 molar
  % Growth: 48%
NCI-H522; NCI-H522, 10^−8 molar
  % Growth: 73%
SR; 10^−4 molar
  % Growth: 12%
SR; 10^−5 molar
  % Growth: 49%
Human cancer cells; 10^−4 M conc.
  Percentage of cancers showing negative growth cancers tested: 10^−4 M conc. = 0/6 = 0%
CCRF-CEM
  percent of growth of human tumor cells: 24%

## O=S1(=O)OCCCOS(=O)(=O)C1(Br)Br [compound 665940]
SF-539; SF-539, 10^−4 molar
  % Growth: 63%
SF-539; SF-539, 10^−5 molar
  % Growth: 99%
SF-539; SF-539, 10^−6 molar
  % Growth: 43%
SF-539; SF-539, 10^−7 molar
  % Growth: 62%
SF-539; SF-539, 10^−8 molar
  % Growth: 47%

Source: patent US8124793B2, “Derivatives of ethylene methanedisulfonate as cancer chemotherapeutic agents” (priority 2007, dated 2012)
